Reference: patent publication US4888335A, “3-alkoxy-2-aminopropyl heterocyclic amines and their use as cardiovascular agents” (McNeilab, Inc., priority 1988, dated 1989)
Where a name gives a salt, the structure may show the parent alone.

Columns and labels:
[1] = tested on: spontaneously hypertensive rats (mean arterial pressure); experiment: Spontaneously Hypertensive Rat (SHR) test, fall in mean arterial pressure; assay type: in vivo; conditions: active if fall >15 mm of Hg
Method: The activity of compounds of formula (I) for the treatment of hypertension was determined using the Spontaneously Hypertensive Rat (SHR) test as described below. Spontaneously Hypertensive Rat Test In this test, the arterial pressure of adult spontaneously hypertensive rats (Charles River) is monitored directly via an aortic cannula. The SH rats are anesthetized with an inhalation anesthetic (ether). The left carotoid artery is isolated and cannulated. The tip of the cannula is advanced to the aorta and the cannula is exteriorized behind the neck at the level of the scapula. Animals are placed in individual cages, allowed to recover from the anesthetic and are kept unrestrained. The arterial cannula is connected to a pressure transducer which is attached to a recorder. The test compounds are administered to at least 3 rats at doses selected in the range of 0.1 to 100 mg/kg of body weight by i.p. or p.o. routes of administration. The arterial pressure and heart rate are monitored for a minimum of 24 hr. A test compound is considered to be active as an antihypertensive agent if the mean arterial pressure (MAP) indicates a fall (δMAP) of >15 mm of Hg. Each animal serves as its own control.

[2] = tested on: Langendorff's isolated heart (coronary flow); experiment: Langendorff isolated heart (increase in coronary flow); conditions: tested at 30.0 to 0.01 micromolar
Method: In addition to their utility in the treatment of hypertension, the compounds of formula (I) are useful in the treatment of the symptoms of angina pectoris by virtue of their ability to dilate coronary arteries. Their activity was measured using the "Langendorff's isolated heart" preparation. This test has been described in "Pharmacological Experiments on Isolated Preparations", Staff of the Department of Pharmacology, University of Edinbourgh, 2nd Ed., Churchill Livingstone, N.Y., 1970, pp 112-119. The test compounds were administered at concentrations of 30.0, 10.0, 3.0, 1.0, 0.3, 0.1, 0.03 and 0.01 micromolar (10^-6 molar). The minimum concentration EC30) needed to elicit a 30% increase in coronary flow is shown in Table I for compounds of formula (I).

| Compound | SHR δMAP (change in mean arterial pressure) ([1]; 10 mg/kg i.p.) | Langendorff EC30 (minimum concentration needed to elicit a 30% increase in coronary flow) [2] | SHR δMAP (change in mean arterial pressure) ([1]; 30 mg/kg p.o.) | SHR δMAP (change in mean arterial pressure) ([1]; 30 mg/kg i.p.) |
| --- | --- | --- | --- | --- |
| CC(C)(C)COCC(CN1c2ccccc2C=Cc2ccccc21)N1CCCC1 (centres unmarked) [Example 6, 5-[3-(2,2 Dimethylpropxy)-2-(1-pyrrolidinyl)propyl]-5H-dibenz[b,f]azepine Hydrochloride] | -27 mm of Hg | .001 10^-6 M | – | – |
| CC(C)COCC(CN1c2ccccc2CCc2ccccc21)N1CCCC1 (centres unmarked) [Example 4, 10,11-dihydro-5-[3-(2-methylpropoxy)-2-(1-pyrrolidinyl)propyl]-5H-dibenz[b,f]azepine] | -65 mm of Hg | .011 10^-6 M | – | – |
| CC(C)(C)COCC(CN1Cc2ccccc2Oc2ccccc21)N1CCCC1.O=C(O)/C=C/C(=O)O (centres unmarked) [Example 5b, 10,11-Dihydro-10-[3-(2,2-dimethylpropoxy)-2-(1-pyrrolidinyl)propyl]dibenz[b,f][1,4]oxazepine (E)-2-Butenedioate] | -70 mm of Hg | .04 10^-6 M | -20 mm of Hg | – |
| CC(C)(C)COCC(CN1Cc2ccccc2Cc2ccccc21)N1CCCC1.O=C(O)/C=C/C(=O)O (centres unmarked) [Example 3c, 5,6-Dihydro-5-[3-(2,2-dimethylpropoxy)-2-(1-pyrrolidinyl)propyl]-11H-dibenz[b,e]azepine (E)-2-Butenedioate] | -54 mm of Hg | .004 10^-6 M | -2 mm of Hg | – |
| CC1(COCC(CN2c3ccccc3Oc3ccccc32)N2CCCC2)CCCCC1.Cl (centres unmarked) [Example 7d, 10-[3-[(1-Methylcyclohexyl)methoxy]-2-(1-pyrrolidinyl)-propyl]-10H-phenoxazine Hydrochloride (1:1)] | – | .012 10^-6 M | -24 mm of Hg | – |
| CC(C)COCC(CN1c2ccccc2Sc2ccccc21)N1CCCC1 (centres unmarked) [Example 9, 10-[3-(2-Methylpropoxy)-2-(1-pyrrolidinyl)propyl]-10H-phenothiazine] | -22 mm of Hg | .30 10^-6 M | -19 mm of Hg | – |
| CC(C)COCC(CN1Cc2ccccc2CCc2ccccc21)N1CCCC1 (stereo not drawn) [Example 2b, 5,6,11,12-Tetrahydro-5-beta-[3-(2-methylpropoxy)-2-(1-pyrrolidinyl)propyl]dibenz[b,f]azocine Hydrate (5:1)] | – | .150 10^-6 M | -25 mm of Hg | – |
| CC1(COCC(CN2c3ccccc3C=Cc3ccccc32)N2CCCC2)CCCCC1 (centres unmarked) [Example 8, 5-[3-[(1-methylcyclohexyl)methoxy]-2-(1-pyrrolidinyl)propyl]-5H-dibenz[b,f]azepine] | – | .0037 10^-6 M | -12 mm of Hg | – |
| CC(C)COCC(CN1Cc2ccccc2Cc2ccccc21)N1CCCC1 (centres unmarked) [Example 1, 5,6-Dihydro-5-[3-(2-methylpropoxy)-2-(1-pyrrolidinyl)-propyl]-11H -dibenz[b,e]azepine] | -37 mm of Hg | .013 10^-6 M | – | -65 mm of Hg |
| C=C(C)COCC(CN1c2ccccc2C=Cc2ccccc21)N1CCCC1 (centres unmarked) [Example 10, 5-[3-(2-methyl-2-propenoxy)-2-(1-pyrrolidinyl)propyl]-5H-dibenz[b,f]azepine] | – | – | -25 mm of Hg | – |
